According to patent US8748461B2, “Metalloenzyme inhibitor compounds” (Viamet Pharmaceuticals, Inc., priority 2011, dated 2014):
Converted amounts (≈) assume the structure as drawn.

Legend:
C. albicans = assay: Minimum Inhibitory Concentration (MIC) (C. albicans), CLSI M27-A2; type: cell-based; conditions: Candida albicans; about 50% growth reduction; approximately 48 h at 35±1° C.
Protocol: A. Minimum Inhibitory Concentration (MIC) (C. albicans) Compounds of the present disclosure were assessed for their ability to inhibit the growth of common strains of fungus, C. albicans using a standardized procedure (CLSI M27-A2). Stock solutions of the test compounds and standards were prepared in DMSO at 1,600 μg/mL (C. albicans). Eleven, serial, one-half dilutions of compounds were prepared in 96-well plates in RPMI+MOPS. The assay concentration ranges were 8-0.001 μg/mL (C. albicans). Cell suspensions of C. albicans were prepared and added to each well at concentrations of approximately 3.7×10^3 colony-forming-units per milliliter (cfu/mL). All testing was in duplicate. The inoculated plates were incubated for approximately 48 h at 35±1° C. At the completion of incubation the wells of each plate were evaluated visually for the presence of fungal growth. […] For QC purposes C. krusei isolate ATCC 6258 (4.0×10^3 cfu/mL) was included in the VOR assay.

CYP2C9 = biological target: T1, CYP2C9 (Homo sapiens, UniProt P11712); assay: Inhibition of liver cytochrome P450 enzymes, isozyme 2C9; type: in vitro ADME; conditions: pooled human liver microsomes
T1 construct: from tissue; host or cells: pooled human liver microsomes
T1 sequence (P11712 whole entry): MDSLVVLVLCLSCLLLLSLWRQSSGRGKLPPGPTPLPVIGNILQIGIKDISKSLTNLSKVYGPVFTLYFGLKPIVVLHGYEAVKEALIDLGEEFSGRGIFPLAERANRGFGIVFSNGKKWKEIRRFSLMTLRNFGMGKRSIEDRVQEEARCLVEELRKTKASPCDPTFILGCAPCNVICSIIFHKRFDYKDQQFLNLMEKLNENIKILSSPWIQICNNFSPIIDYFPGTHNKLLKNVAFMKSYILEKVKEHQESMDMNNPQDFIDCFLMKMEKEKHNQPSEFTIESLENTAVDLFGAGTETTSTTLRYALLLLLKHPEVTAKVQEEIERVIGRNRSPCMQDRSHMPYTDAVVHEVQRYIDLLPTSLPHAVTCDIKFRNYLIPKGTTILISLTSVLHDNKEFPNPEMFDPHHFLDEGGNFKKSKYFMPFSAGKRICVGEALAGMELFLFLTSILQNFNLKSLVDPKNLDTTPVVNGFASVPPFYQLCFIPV
Protocol: (§1) B. […] Solutions of each test compound were separately prepared at concentrations of 20000, 6000, 2000, 600, 200, and 60 μM by serial dilution with DMSO:acetonitrile (MeCN) (50:50 v/v). The individual test compound solutions were then diluted 20-fold with DMSO:MeCN:deionized water (5:5:180 v/v/v) to concentrations of 1000, 300, 100, 30, 10, and 3 μM. […] The mixed inhibitor solutions were then diluted 20-fold with DMSO:MeCN:deionized water (5:5:180 v/v/v) to concentrations of 300, 100, 30, 10, 3, 1, 0.3, and 0.1 μM. The percent of organic solvent attributable to the test compound or inhibitor mixture in the final reaction mixture was 2% v/v. Pooled human liver microsome suspension (20 mg/mL) was diluted with phosphate buffer to obtain a 5 mg/mL suspension. A solution of NADPH was prepared in phosphate buffer at a concentration of 5 mM. Separate stock solutions of each substrate were prepared in DMSO:MeCN (50:50 v/v), mixed, and diluted in phosphate buffer to obtain a single solution containing each substrate at five times its experimentally determined Km concentration. […] A portion of the supernatant was analyzed by gradient reverse-phase HPLC with detection by electrospray ionization triple quadrupole mass spectrometry in the positive ion mode. Data was fitted to sigmoid dose-response curves and the inhibitory potency of each test compound was determined as its IC50 value.

CYP2C19 = biological target: T2, CYP2C19 (Homo sapiens, UniProt P33261); assay: Inhibition of liver cytochrome P450 enzymes, isozyme 2C19; type: in vitro ADME; conditions: pooled human liver microsomes
T2 construct: from tissue; host or cells: pooled human liver microsomes
T2 sequence (P33261 whole entry): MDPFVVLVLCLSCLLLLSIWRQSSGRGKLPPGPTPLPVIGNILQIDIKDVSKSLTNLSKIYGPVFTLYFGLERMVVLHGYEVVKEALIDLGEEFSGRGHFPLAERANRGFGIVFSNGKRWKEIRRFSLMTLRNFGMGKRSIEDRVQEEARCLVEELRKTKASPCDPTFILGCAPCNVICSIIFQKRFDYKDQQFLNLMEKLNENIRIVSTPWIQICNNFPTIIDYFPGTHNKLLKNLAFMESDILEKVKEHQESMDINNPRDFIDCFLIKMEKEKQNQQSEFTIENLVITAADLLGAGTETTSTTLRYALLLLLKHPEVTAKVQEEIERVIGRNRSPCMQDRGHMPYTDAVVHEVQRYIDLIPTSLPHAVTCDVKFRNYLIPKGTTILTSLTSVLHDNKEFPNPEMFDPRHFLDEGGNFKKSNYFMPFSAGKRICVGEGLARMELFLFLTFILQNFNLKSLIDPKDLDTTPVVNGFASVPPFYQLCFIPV
Protocol: as §1

CYP3A4 = biological target: T3, CYP3A4 (Homo sapiens, UniProt P08684); assay: Inhibition of liver cytochrome P450 enzymes, isozyme 3A4; type: in vitro ADME; conditions: pooled human liver microsomes
T3 construct: from tissue; host or cells: pooled human liver microsomes
T3 sequence (P08684 whole entry): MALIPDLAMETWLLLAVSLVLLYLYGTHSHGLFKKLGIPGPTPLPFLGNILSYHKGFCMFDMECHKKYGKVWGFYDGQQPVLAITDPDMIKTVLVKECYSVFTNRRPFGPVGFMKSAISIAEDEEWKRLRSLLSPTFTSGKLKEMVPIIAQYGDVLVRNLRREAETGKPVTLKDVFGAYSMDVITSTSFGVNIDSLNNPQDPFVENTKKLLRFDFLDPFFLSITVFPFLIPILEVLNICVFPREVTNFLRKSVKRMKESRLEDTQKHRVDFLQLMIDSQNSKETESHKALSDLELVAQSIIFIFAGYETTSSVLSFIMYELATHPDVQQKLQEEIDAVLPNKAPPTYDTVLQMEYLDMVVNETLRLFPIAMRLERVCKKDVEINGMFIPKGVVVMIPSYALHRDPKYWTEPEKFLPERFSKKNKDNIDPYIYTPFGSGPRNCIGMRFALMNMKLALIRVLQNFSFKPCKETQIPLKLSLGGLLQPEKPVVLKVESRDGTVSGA
Protocol: as §1

[1] = system: Septoria tritici (ATCC 26517); assay: Minimum Inhibitory Concentration (MIC) vs. Septoria tritici; type: cell-based; conditions: Zymoseptoria tritici, ATCC26517, 168 h; 50% reduction in growth of S. tritici; 22° C., seven days; read-out: Septoria Rating (MIC)
Procedure, shortened: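 Growth inhibition of S. tritici by CLSI-based filamentous-fungus microdilution, 2-fold series 16 to 0.016 μg/mL in RPMI-1640/MOPS with 2% DMSO. Inoculum approximately 5×10^4 cfu/mL; plates incubated 22° C, seven days, dark, unshaken.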

[2] = system: Puccinia recondita tritici = Puccinia triticina; assay: Fungicidal activity vs. leaf rust on wheat plants; type: in vivo; conditions: 50 ppm spray on wheat (Yuma), inoculated the following day, evaluated 7-9 days later; read-out: Puccinia Rating (% Disease Control @ 50 ppm)
Procedure, shortened: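 Wheat seedlings were sprayed to wetness with compound at 50 ppm in 10% acetone/Triton X100 water, at about 1500 L/ha. They were inoculated with P. recondita tritici spores the following day and held overnight at high humidity before greenhouse growth. Disease severity was rated 7-9 days later on a rating scale.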

SMILES | MIC (C. albicans) [µg/mL] | IC50 (CYP2C9) [µM] | IC50 (CYP2C19) [µM] | IC50 (CYP3A4) [µM] | MIC [1] [µg/mL] | pest or weed control at 50 ppm [2] [%]
OC(Cn1cnnn1)(c1ccc(F)cc1F)C(F)(F)c1ccc(OCc2cccc(F)c2)cn1 (stereo not shown) [Compound 3, 2-(2,4-Difluorophenyl)-1,1-difluoro-1-(5-(3-fluorobenzyloxy)pyridin-2-yl)-3-(1H-tetrazol-1-yl)propan-2-ol] | 0.002 (≈ 0.00419 µM) | 12 | 11 | 8.4 | ≤ 0.5 | 80 to 100
N#Cc1ccc(Oc2ccc(C(F)(F)C(O)(Cn3cnnn3)c3ccc(F)cc3F)nc2)cc1 (stereo not shown) [Compound 5, 4-(6-(2-(2,4-Difluorophenyl)-1,1-difluoro-2-hydroxy-3-(1H-tetrazol-1-yl)propyl)pyridin-3-yloxy)benzonitrile] | 0.031 (≈ 0.0659 µM) | 31 | 16 | 16 | ≤ 0.5 | 80 to 100
N#Cc1ccc(C(F)(F)COc2ccc(C(F)(F)C(O)(Cn3cnnn3)c3ccc(F)cc3F)nc2)cc1 (stereo not shown) [Compound 121, 4-(2-((6-(2-(2,4-difluorophenyl)-1,1-difluoro-2-hydroxy-3-(1H-tetrazol-1-yl)propyl)pyridin-3-yl)oxy)-1,1-difluoroethyl)benzonitrile] |  |  |  |  | ≤ 0.5 | 80 to 100
OC(Cn1cnnn1)(c1ccc(F)cc1F)C(F)(F)c1ccc(OCC(F)(F)c2ccc(Cl)cc2)cn1 (stereo not shown) [Compound 122, 1-(5-(2-(4-chlorophenyl)-2,2-difluoroethoxy)pyridin-2-yl)-2-(2,4-difluorophenyl)-1,1-difluoro-3-(1H-tetrazol-1-yl)propan-2-ol] |  |  |  |  | ≤ 0.5 | 80 to 100
OC(Cn1cnnn1)(c1ccc(F)cc1F)C(F)(F)c1ccc(OCC(F)c2ccccc2)cn1 (stereo not shown) [Compound 123, 2-(2,4-difluorophenyl)-1,1-difluoro-1-(5-(2-fluoro-2-phenylethoxy)pyridin-2-yl)-3-(1H-tetrazol-1-yl)propan-2-ol] |  |  |  |  | ≤ 0.5 | 80 to 100
OC(Cn1cnnn1)(c1ccc(F)cc1F)C(F)(F)c1ccc(OCC(F)c2ccc(OC(F)F)cc2)cn1 (stereo not shown) [Compound 124, 1-(5-(2-(4-(difluoromethoxy)phenyl)-2-fluoroethoxy)pyridin-2-yl)-2-(2,4-difluorophenyl)-1,1-difluoro-3-(1H-tetrazol-1-yl)propan-2-ol] |  |  |  |  | ≤ 0.5 | 80 to 100
OC(Cn1cncn1)(Cn1cncn1)c1ccc(F)cc1F [Fluconazole, reference compound] | 0.5 (≈ 1.63 µM) |  |  |  |  | 
C[C@@H](c1ncncc1F)[C@](O)(Cn1cncn1)c1ccc(F)cc1F [Voriconazole, reference compound] | 0.016 (≈ 0.0458 µM) |  |  |  |  | 
